The target of experiment [1] is T1, human P2X7 (Homo sapiens (Human), UniProt Q99572). Nature of the experiment: Radioligand binding, human P2X7-1321N1 cell membranes, tritiated A-804598. To be noted: human P2X7-1321N1 membranes, tracer tritiated A-804598, 1 hour 4° C. The procedure: (§1) P2X7 Antagonism in Recombinant hP2X7 Cells: (a) Ca^2+ Flux (b) Radioligand Binding
(§2) (B) Radioligand binding: human or rat P2X7-1321N1 cells were collected and frozen @−80° C. On the day of the experiment, cell membrane preparations were made according to standard published methods. […] The compound can be prepared as described in the literature. […] The assay was terminated by filtration (GF/B filters pre-soaked with 0.3% PEI) and washed with washing buffer (Tris-HCl 50 mM). The IC50 generated in the binding assay was corrected for tracer concentration and affinity of the tracer to derive at the affinity (Ki) of the test compounds.

Experiment [2] addresses T1, human P2X7. Nature of the experiment: Ca2+ flux (FLIPR) in 1321N1 cells expressing recombinant human P2X7 channel. The format is cell-based. To be noted: human P2X7, 250 μM BzATP. The procedure:
as §1
(§3) (A) Ca^2+flux: 1321N1 cells expressing the recombinant human, rat or mouse P2X7 channel was cultured in HyQ DME/(HyClone/Dulbecco's Modified Eagle Medium) high glucose supplemented with 10% Fetal Bovine Serum (FBS) and appropriate selection marker. Cells were seeded at a density of 25000 cells/well (96-well clear bottom black walled plates) in 100 μl volume/well. On the day of the experiment, cell plates were washed with assay buffer, containing (in mM): 130 NaCl, 2 KCl, 1 CaCl2, 1 MgCl2, 10 HEPES, 5 glucose; pH 7.40 and 300 mOs. After the wash, cells were loaded with the Calcium-4 dye (Molecular Device) and incubated in the dark for 60 minutes. Test compounds were prepared at 250× the test concentration in neat DMSO. Intermediate 96-well compound plates were prepared by transferring 1.2 μL of the compound into 300 μL of assay buffer. A further 3× dilution occurred when transferring 50 μL/well of the compound plate to 100 μL/well in the cell plate. Cells were incubated with test compounds and dye for 30 minutes. […] The fluorescence change was measured 180 seconds after adding the agonist.

Experiment [3] concerns the target T2, rat P2X7 (Rattus norvegicus (Rat), UniProt Q64663). Nature of the experiment: Ca2+ flux (FLIPR) in 1321N1 cells expressing recombinant rat P2X7 channel. The format is cell-based. The following applies: rat P2X7, 250 μM BzATP. Here is the method: as §1, §3
(In general: A change in cytosolic calcium serves as a functional read-out for many receptors and channels.)

Experiment [4] deals with T2, rat P2X7. In words: Radioligand binding, rat P2X7-1321N1 cell membranes, tritiated A-804598. To be noted: rat P2X7-1321N1 membranes, tracer tritiated A-804598, 1 hour 4° C. Here is the method:
as §1, §2

Each structure is given as a SMILES string. pIC50, pKi: −log10 of the molar value.

From patent US9102686B2, “5,6,7,8,9,10-hexahydro-6,10-epimino[1,2,4]triazolo[4,3-a]azocines as P2X7 modulators” (Janssen Pharmaceutica NV, priority 2013, dated 2015) come the findings set out here.

T2 sequence (Q64663 whole entry): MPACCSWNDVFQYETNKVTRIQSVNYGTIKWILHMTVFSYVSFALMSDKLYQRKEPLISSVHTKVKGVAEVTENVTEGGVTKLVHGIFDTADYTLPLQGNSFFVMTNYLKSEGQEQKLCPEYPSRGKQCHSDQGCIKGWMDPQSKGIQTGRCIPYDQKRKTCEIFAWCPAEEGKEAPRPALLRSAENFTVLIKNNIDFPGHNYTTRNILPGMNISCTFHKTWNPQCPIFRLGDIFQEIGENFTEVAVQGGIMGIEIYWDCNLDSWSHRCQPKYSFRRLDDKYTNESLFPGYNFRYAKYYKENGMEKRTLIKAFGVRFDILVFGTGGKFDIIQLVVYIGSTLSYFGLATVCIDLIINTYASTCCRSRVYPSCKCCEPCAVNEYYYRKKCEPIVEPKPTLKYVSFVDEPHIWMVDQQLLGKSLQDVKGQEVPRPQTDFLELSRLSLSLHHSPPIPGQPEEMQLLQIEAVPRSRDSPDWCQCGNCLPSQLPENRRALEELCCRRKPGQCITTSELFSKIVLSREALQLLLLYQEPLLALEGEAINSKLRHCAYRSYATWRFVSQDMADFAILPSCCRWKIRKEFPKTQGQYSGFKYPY
T1 sequence (Q99572 whole entry): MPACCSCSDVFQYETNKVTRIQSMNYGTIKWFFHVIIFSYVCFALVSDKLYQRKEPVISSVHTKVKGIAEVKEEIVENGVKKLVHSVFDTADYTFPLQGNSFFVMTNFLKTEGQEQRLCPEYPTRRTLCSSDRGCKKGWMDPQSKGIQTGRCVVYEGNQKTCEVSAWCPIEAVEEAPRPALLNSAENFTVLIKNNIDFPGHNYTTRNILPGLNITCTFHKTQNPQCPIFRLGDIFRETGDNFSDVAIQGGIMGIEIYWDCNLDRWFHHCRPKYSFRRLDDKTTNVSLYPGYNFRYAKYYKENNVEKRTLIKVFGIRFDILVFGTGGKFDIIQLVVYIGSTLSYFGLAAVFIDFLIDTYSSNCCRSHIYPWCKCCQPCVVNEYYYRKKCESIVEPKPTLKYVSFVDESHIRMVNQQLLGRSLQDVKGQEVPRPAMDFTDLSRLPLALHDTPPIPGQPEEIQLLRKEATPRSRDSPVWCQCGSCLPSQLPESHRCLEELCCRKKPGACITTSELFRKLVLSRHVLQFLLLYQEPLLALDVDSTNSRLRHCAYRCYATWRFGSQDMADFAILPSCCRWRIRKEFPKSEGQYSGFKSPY

By pKi is commonly meant −log10 of the Ki, conventionally taken in molar units. Usually pIC50 stands for −log10 of the IC50, conventionally taken in molar units. Regarding `O=C(c1cccc(C(F)(F)F)c1Cl)N1[C@H]2CC[C@@H]1c1nnc(-c3ccc(F)cc3)n1C2` [Example 40, (6S,9R)-10-{[2-Chloro-3-(trifluoromethyl)phenyl]carbonyl}-3-(4-fluorophenyl)-6,7,8,9-tetrahydro-5H-6,9-epimino[1,2,4]triazolo[4,3-a]azepine], the negative-log Ki (pKi) was 7.66 on human P2X7 [1] and 7.45 at rat P2X7 [4]. Besides, the pIC50 on human P2X7 [2] was 7.90; at rat P2X7 [3] it was 5.00.
